The structures appear in SMILES notation.

The values below come from patent US12064426B2, “Selective inhibitors of ROCK1 and ROCK2 protein kinases and uses thereof” (GENOSCO Inc., priority 2021, dated 2024).

Experiment [1] addresses T1, Recombinant ROCK1 (amino acids 1-477) (Homo sapiens, UniProt Q13464).
T1 construct: Recombinant ROCK1 (amino acids 1-477); by word order, ROCK1 from Carna Biosciences
In words: ROCK inhibition assay, LANCE Ultra TR-FRET kinase assay (ROCK1). The format is biochemical. Conditions: 1 μM ATP, 50 nM ULight-CREBtide substrate. In short, it runs like this: (§1)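 Reaction buffer 50 mM HEPES pH 7.5, 10 mM MgCl2, 1 mM EGTA, 2 mM DTT; kinase, ULight-CREBtide (50 nM) and ATP (ROCK1 1 μM, ROCK2 4 μM) react 1 h at room temperature. Phospho-Ser133 detected by europium antibody after 10 mM EDTA stop, TR-FRET ex 320 nm; IC50 calculated.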
In general terms: Time-resolved FRET reads energy transfer from a long-lived donor to a nearby acceptor.

The target of experiment [2] is T2, Recombinant ROCK2 (amino acids 5-554) (Homo sapiens, UniProt O75116).
T2 construct: ROCK2 (amino acids 5-554); by word order, ROCK2 from SignalChem
T2 sequence (O75116 5-554): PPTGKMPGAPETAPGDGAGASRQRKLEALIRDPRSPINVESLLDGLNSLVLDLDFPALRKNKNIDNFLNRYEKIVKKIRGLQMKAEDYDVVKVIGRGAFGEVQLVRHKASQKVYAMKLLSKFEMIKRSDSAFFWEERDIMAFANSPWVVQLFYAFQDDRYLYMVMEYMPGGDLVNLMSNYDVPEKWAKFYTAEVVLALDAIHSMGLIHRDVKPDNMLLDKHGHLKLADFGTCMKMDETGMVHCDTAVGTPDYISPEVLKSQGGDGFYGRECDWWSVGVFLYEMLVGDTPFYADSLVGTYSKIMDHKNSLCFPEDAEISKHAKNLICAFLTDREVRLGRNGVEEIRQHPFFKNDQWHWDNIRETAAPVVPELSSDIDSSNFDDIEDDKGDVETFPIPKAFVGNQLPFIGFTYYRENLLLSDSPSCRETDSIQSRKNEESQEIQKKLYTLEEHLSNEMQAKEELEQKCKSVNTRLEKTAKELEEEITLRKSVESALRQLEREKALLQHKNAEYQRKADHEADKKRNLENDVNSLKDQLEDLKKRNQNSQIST
In words: ROCK inhibition assay, LANCE Ultra TR-FRET kinase assay (ROCK2). The format is biochemical. The conditions noted are these: 4 μM ATP, 50 nM ULight-CREBtide substrate. In short, it runs like this: as §1

T1 sequence (Q13464 1-477): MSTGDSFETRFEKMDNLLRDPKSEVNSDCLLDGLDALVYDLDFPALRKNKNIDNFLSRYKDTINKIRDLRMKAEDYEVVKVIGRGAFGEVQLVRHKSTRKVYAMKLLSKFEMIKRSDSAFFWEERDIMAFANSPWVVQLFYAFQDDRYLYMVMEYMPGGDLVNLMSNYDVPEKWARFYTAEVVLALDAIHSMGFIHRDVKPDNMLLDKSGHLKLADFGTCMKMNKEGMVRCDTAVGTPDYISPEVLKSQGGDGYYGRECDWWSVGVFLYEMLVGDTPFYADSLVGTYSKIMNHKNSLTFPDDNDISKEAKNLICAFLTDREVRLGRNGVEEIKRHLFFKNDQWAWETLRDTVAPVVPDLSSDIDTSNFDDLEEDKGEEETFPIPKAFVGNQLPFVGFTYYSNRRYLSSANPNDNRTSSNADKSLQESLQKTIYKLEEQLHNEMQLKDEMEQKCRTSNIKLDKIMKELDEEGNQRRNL

As usually defined, the IC50 is the midpoint of a concentration-inhibition curve. As to `[2H]C([2H])([2H])NC(=O)c1cccc(Cn2cnc3cc(-c4cn[nH]c4C(F)F)ccc3c2=O)c1` [Compound 392], the half-inhibitory concentration (IC50) in experiment [1] is 11 to 100 nM; in experiment [2], < 10 nM.

`CNC(=O)c1cccc(Cn2cnc3cc(-c4ccnc(N)c4)ccc3c2=O)c1` [Compound 433]: the IC50 was in the range of 101 to 500 nM in experiment [1] and 10 to 100 nM in experiment [2].

Take `CNC(=O)c1cccc(C(C)n2cc(CCN(C)C)c3cc(-c4cn[nH]c4C(F)(F)F)ccc3c2=O)c1` (stereo not drawn) [Compound 563]: the values for the IC50 in experiment [1] and in experiment [2] were 11 to 100 nM and < 10 nM, respectively.

For the compound `O=C(N[C@H]1CC[C@H](O)CC1)c1cc(F)cc(Cn2ccc3cc(-c4c[nH]nc4Cl)ncc3c2=O)c1` [Compound 263], the figures for the IC50 in experiment [1] and in experiment [2] were 11 to 100 nM and < 10 nM, respectively.

As to `NCC(c1cccc(Cl)c1)n1cnc2cc(-c3cn[nH]c3Cl)ccc2c1=O` (stereo not drawn) [Compound 496], the IC50 in experiment [1] and in experiment [2] was < 10 nM each time.

Consider `Cc1nocc1-c1ccc2c(=O)n(Cc3cccc(C(=O)NCCN4CCOCC4)c3)ccc2c1` [Compound 69], for which the IC50 in experiment [1] was in the range of 101 to 500 nM; in experiment [2], 10 to 100 nM.

Turning to `O=C(NC1CCN(CC(F)F)CC1)c1cccc(Cn2ccc3cc(-c4c[nH]nc4C(F)(F)F)ccc3c2=O)c1` [Compound 49], the IC50 is 101 to 500 nM in experiment [1] and < 10 nM in experiment [2].

Take `Cc1nocc1-c1ccc2c(=O)n(Cc3cc(F)cc(C(=O)NCC4CCN(C5CC5)CC4)c3)ccc2c1` [Compound 151]: the IC50 in experiment [1] is 11 to 100 nM; in experiment [2], < 10 nM.

For `CNC(=O)c1cccc(C(C)n2ccc3cc(-c4cn[nH]c4Cl)ccc3c2=O)c1` (stereo not drawn) [Compound 292], the IC50 in experiment [1] was 11 to 100 nM; in experiment [2], < 10 nM.

With `CNC(=O)c1cccc(Cn2cc(CC(C)O)c3cc(-c4c[nH]nc4N)ccc3c2=O)c1` (stereo not drawn) [Compound 562], the IC50 in experiment [1] is 11 to 100 nM; in experiment [2], < 10 nM.

`O=C(NCC1CCN(C2COC2)CC1)c1cccc(Cn2ccc3cc(N4CCOCC4)ccc3c2=O)c1` [Compound 227]: the values for the IC50 in experiment [1] and in experiment [2] were 101 to 500 nM and 10 to 100 nM, respectively.

For `[2H]C([2H])([2H])NC(=O)c1cccc([C@@H](C)n2cnc3cc(-c4cn[nH]c4N)ccc3c2=O)c1` [Compound 519], the IC50 in experiment [1] is 11 to 100 nM; in experiment [2], < 10 nM.

On to `CC(C)NC(=O)c1cccc([C@@H](C)n2cnc3cc(-c4cn[nH]c4C(F)(F)F)ccc3c2=O)c1` [Compound 445], for which the 50% inhibitory concentration (IC50) in experiment [1] was 11 to 100 nM; in experiment [2], < 10 nM.

For the compound `Nc1cc(-c2ccc3c(=O)n(Cc4cccc(C(=O)Nc5ccc6c(c5)CCOC6)c4)ccc3c2)ccn1` [Compound 196], the figures for the IC50 in experiment [1] and in experiment [2] were 101 to 500 nM and 10 to 100 nM, respectively.

As to `O=C(NC1CCN(C2COC2)CC1)c1cccc(Cn2cnc3cc(-c4cn[nH]c4C(F)(F)F)ccc3c2=O)c1` [Compound 377], the IC50 was 11 to 100 nM in experiment [1] and < 10 nM in experiment [2].

On to `Cc1nocc1-c1ccc2c(=O)n(Cc3cccc(C(=O)Nc4nc5c(s4)CCNC5)c3)ccc2c1` [Compound 93], for which the IC50 in experiment [1] and in experiment [2] was < 10 nM in each case.

For `CC(=O)Nc1cccc(Cn2ccc3cc(-c4ccoc4C)ccc3c2=O)c1` [Compound 332, N-(3-((6-(2-methylfuran-3-yl)-1-oxoisoquinolin-2(1H)-yl)methyl)phenyl)acetamide], the IC50 was > 501 nM in experiment [1] and 100 to 500 nM in experiment [2].

With `C[C@H](c1cccc(C(=O)N(C)C)c1)n1cnc2cc(-c3ccnc(N)c3)ccc2c1=O` [Compound 482], the results for the IC50 in experiment [1] and in experiment [2] were > 501 nM and > 500 nM, respectively.

`CNC(=O)c1cccc(Cn2ccc3cc(-c4cn[nH]c4)ccc3c2=O)c1` [Compound 308]: the IC50 in experiment [1] and in experiment [2] was < 10 nM in each case.

On to `CC(C)NC(=O)c1cc(F)cc(Cn2ccc3cc(-c4c[nH]nc4Cl)ncc3c2=O)c1` [Compound 264], for which the IC50 was 11 to 100 nM in experiment [1] and < 10 nM in experiment [2].

On to `Cc1nocc1-c1ccc2c(=O)n([C@H](C)c3cccc(C(=O)NCC4CCN(C)CC4)c3)cnc2c1` [Compound 472], for which the IC50 in experiment [1] and in experiment [2] was < 10 nM each time.

Turning to `COc1cccc(C(C)n2ccc3cc(-c4c[nH]nc4Cl)ccc3c2=O)c1` (stereo not drawn) [Compound 19], the IC50 in experiment [1] and in experiment [2] was < 10 nM throughout.

Turning to `Cn1ccc(NC(=O)c2cccc(Cn3ccc4cc(-c5cn[nH]c5C(F)(F)F)ccc4c3=O)c2)n1` [Compound 43], the IC50 in experiment [1] was 11 to 100 nM; in experiment [2], < 10 nM.

`O=C(Nc1cccc(Cn2ccc3cc(-c4c[nH]nc4C(F)F)ccc3c2=O)c1)c1ccccc1` [Compound 344]: the IC50 in experiment [1] was in the range of 101 to 500 nM; in experiment [2] it was 10 to 100 nM.

As to `CN(C)CCNC(=O)c1cccc(Cn2ccc3cc(-c4ccnn4C)ccc3c2=O)c1` [Compound 119], the IC50 is 11 to 100 nM in experiment [1] and < 10 nM in experiment [2].

For the compound `CC(=O)Nc1cccc(Cn2ccc3cc(-c4c[nH]nc4Cl)ccc3c2=O)c1` [Compound 345], the IC50 is 11 to 100 nM in experiment [1] and 10 to 100 nM in experiment [2].

For `CC(O)c1cn(Cc2cccc(C(=O)NCCN(C)C)c2)c(=O)c2ccc(-c3c[nH]nc3Cl)cc12` (stereo not drawn) [Compound 542], the IC50 in experiment [1] and in experiment [2] was < 10 nM in each case.

`Cn1nccc1-c1ccc2c(=O)n(Cc3cccc(C(=O)NCC4COC4)c3)cnc2c1` [Compound 431]: the IC50 in experiment [1] was 11 to 100 nM; in experiment [2] it was 10 to 100 nM.

In the case of `Cn1nccc1-c1ccc2c(=O)n(Cc3cccc(C(=O)NCC4COC4)c3)ccc2c1` [Compound 111], the IC50 in experiment [1] is 101 to 500 nM; in experiment [2], < 10 nM.

`CN1CCC(CNC(=O)c2cccc(Cn3cnc4cc(-c5cn[nH]c5Cl)ccc4c3=O)c2)CC1` [Compound 410]: the IC50 in experiment [1] and in experiment [2] was < 10 nM in each case.

As for `Cc1nocc1-c1ccc2c(=O)n(Cc3cccc(NC(=O)c4ccc(F)cc4)c3)ccc2c1` [Compound 349], the IC50 is 11 to 100 nM in experiment [1] and 10 to 100 nM in experiment [2].

With `C[C@H](c1cccc(C(=O)NC2CC2)c1)n1cnc2cc(-c3cn[nH]c3N)ccc2c1=O` [Compound 521], the results for the IC50 in experiment [1] and in experiment [2] were 11 to 100 nM and < 10 nM, respectively.

Regarding `Cc1[nH]ncc1-c1ccc2c(c1)NCN([C@H](CO)c1cccc(Cl)c1)C2=O` [Compound 523, (S)-3-(1-(3-chlorophenyl)-2-hydroxyethyl)-7-(5-methyl-1H-pyrazol-4-yl)-2,3-dihydroquinazolin-4(1H)-one], the values for the IC50 in experiment [1] and in experiment [2] were > 501 nM and 100 to 500 nM, respectively.

`CNC(=O)c1cccc(Cn2ccc3cc(N4CC5CC(C4)O5)ccc3c2=O)c1` [Compound 330]: the IC50 in experiment [1] is > 501 nM; in experiment [2], > 500 nM.

For the compound `CCNC(=O)c1cc(F)cc(Cn2ccc3cc(-c4c[nH]nc4C)ncc3c2=O)c1` [Compound 254], the IC50 in experiment [1] was 11 to 100 nM; in experiment [2], < 10 nM.

In the case of `CNC(=O)c1cc(F)cc(Cn2cnc3cc(-c4conc4C)ccc3c2=O)c1` [Compound 422], the IC50 is 11 to 100 nM in experiment [1] and < 10 nM in experiment [2].

Consider `Cc1nocc1-c1ccc2c(=O)n(Cc3cccc(C(=O)Nc4ccc5c(c4)COCC5)c3)ccc2c1` [Compound 92], for which the concentration for half-maximal inhibition (IC50) in experiment [1] is 11 to 100 nM; in experiment [2] it was < 10 nM.

Turning to `Cc1nocc1-c1ccc2c(=O)n(Cc3cccc(C(=O)NC(C)C)c3)cnc2c1` [Compound 414], the 50% inhibitory concentration (IC50) in experiment [1] lay in the range of 101 to 500 nM; in experiment [2], 10 to 100 nM.

In the case of `Cc1nocc1-c1ccc2c(=O)n(Cc3cccc(C(=O)NCCN4CCN(C)CC4)c3)ccc2c1` [Compound 70], the IC50 in experiment [1] and in experiment [2] was < 10 nM throughout.

In the case of `[2H]C([2H])([2H])NC(=O)c1cccc(C(C)n2ccc3cc(-c4cn[nH]c4C(F)F)ccc3c2=O)c1` (stereo not drawn) [Compound 288], the IC50 was 11 to 100 nM in experiment [1] and < 10 nM in experiment [2].

Take `O=C(NC1CCOCC1)c1cccc(Cn2ccc3cc(N4CCOCC4)ccc3c2=O)c1` [Compound 212]: the results for the IC50 in experiment [1] and in experiment [2] were > 501 nM and 100 to 500 nM, respectively.

For the compound `O=C(N[C@H]1CC[C@H](O)CC1)c1cccc(Cn2ccc3cc(N4CCOCC4)ccc3c2=O)c1` [Compound 213], the figures for the IC50 in experiment [1] and in experiment [2] were > 501 nM and 100 to 500 nM, respectively.

With `O=C(NCc1ccccc1)c1cccc(Cn2cnc3cc(-c4cn[nH]c4C(F)(F)F)ccc3c2=O)c1` [Compound 371], the IC50 in experiment [1] was in the range of 101 to 500 nM; in experiment [2], 10 to 100 nM.

As to `CC(C)N1CCC(NC(=O)c2cc(F)cc(Cn3ccc4cc(-c5ccnn5C)ccc4c3=O)c2)CC1` [Compound 175], the IC50 in experiment [1] lay within 101 to 500 nM; in experiment [2], 10 to 100 nM.

Consider `CNC(=O)c1cncc(Cn2cnc3cc(-c4cn[nH]c4Cl)ccc3c2=O)c1` [Compound 403], for which the values for the IC50 in experiment [1] and in experiment [2] were > 501 nM and 100 to 500 nM, respectively.

Turning to `CN1CCc2cc(NC(=O)c3cccc(Cn4ccc5cc(-c6ccnc(N)c6)ccc5c4=O)c3)ccc2C1` [Compound 189], the IC50 in experiment [1] and in experiment [2] was < 10 nM throughout.

Consider `COc1cccc(Cn2ccc3cc(-c4c[nH]nc4C(F)F)ccc3c2=O)c1` [Compound 13], for which the IC50 in experiment [1] was 11 to 100 nM; in experiment [2], < 10 nM.

For the compound `Cc1[nH]ncc1-c1ccc2c(=O)n(C(CN)c3cccc(Cl)c3)cnc2c1` (stereo not drawn) [Compound 494], the IC50 in experiment [1] and in experiment [2] was < 10 nM throughout.

On to `Cn1nccc1-c1ccc2c(=O)n(Cc3cccc(C(=O)NCC4CCNCC4)c3)ccc2c1` [Compound 169], for which the 50% inhibitory concentration (IC50) in experiment [1] and in experiment [2] was < 10 nM each time.

Regarding `O=c1c2ccc(-c3c[nH]nc3C(F)F)cc2ccn1Cc1cccc(O)c1` [Compound 14], the IC50 in experiment [1] was 11 to 100 nM; in experiment [2] it was < 10 nM.

On to `CN1CC(CNC(=O)c2cccc(Cn3ccc4cc(-c5ccnn5C)ccc4c3=O)c2)C1` [Compound 168], for which the IC50 in experiment [1] and in experiment [2] was < 10 nM in each case.
